Laboratory results published in US8946426B2, “Substituted bicyclic heterocyclic compounds as gamma secretase modulators” (Janssen Pharmaceuticals, Inc., priority 2009, dated 2015).

How the values were obtained:
Format in all cases: cell-based
Aβ42 [1] = assay: Method 1: Aβ42 sandwich ELISA in supernatant of SKNBE2 cells carrying APP 695-wild type (Tables 7a, 7b)
Outline: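 SKNBE2 cells expressing wild-type APP695 were exposed to compound for 18 hours. Secreted Aβ42 was quantified by sandwich ELISA with C-terminal-selective capture, biotinylated 3D6 detection and TMB read-out at 450 nm. IC50 came from 4-parameter fits of % inhibition or % of untreated control; WST-1 monitored toxicity.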

Aβtotal [2] = assay: Method 1: Aβtotal sandwich ELISA in supernatant of SKNBE2 cells carrying APP 695-wild type (Tables 7a, 7b)
Method: (§1) Screening was carried out using SKNBE2 cells carrying the APP 695-wild type, grown in Dulbecco's Modified Eagle's Medium/Nutrient mixture F-12 (DMEM/NUT-mix F-12) (HAM) provided by Gibco (cat no. 31330-38) containing 5% Serum/Fe supplemented with 1% non-essential amino acids. Cells were grown to near confluency.
The screening was performed using the assay as described in Citron et al (1997) Nature Medicine 3: 67. Briefly, cells were plated in a 96-well plate at about 10^5 cells/ml one day prior to addition of compounds. Compounds were added to the cells in Ultraculture (Lonza, BE12-725F) supplemented with 1% glutamine (Invitrogen, 25030-024) for 18 Hours. The media were assayed by two sandwich ELISAs, for Aβ42 and Aβtotal. Toxicity of the compounds was assayed by WST-1 cell proliferation reagent (Roche, 1 644 807) according to the manufacturer's protocol.
To quantify the amount of Aβtotal in the cell supernatant, samples and standards were added to a 6E10-coated plate. The plate was allowed to incubate overnight at 4° C. in order to allow formation of the antibody-amyloid complex. Following this incubation and subsequent wash steps a selective anti-Aβ-antibody conjugate (biotinylated 4G8) was added and incubated for a minimum of 1 Hour in order to allow formation of the antibody-Amyloid-antibody-complex. After incubation and appropriate wash steps, a Streptavidine-Peroxidase-Conjugate was added, followed 30 minutes later by an addition of Quanta Blu fluorogenic peroxidase substrate according to the manufacturer's instructions (Pierce Corp., Rockford, Ill.).
To obtain the values reported in Table 7a, the sigmoidal dose response curves were analysed by computerised curve-fitting, with percent of inhibition plotted against compound concentration. A 4-parameter equation (model 205) in XLfit was used to determine the IC50. The top and the bottom of the curve were fixed to 100 and 0, respectively, and the hill slope was fixed to 1. The IC50 represents the concentration of a compound that is required for inhibiting a biological effect by 50% (Here, it is the concentration where Aβ peptide level is reduced by 50%).
(§2) To obtain the values reported in Table 7b, the data were calculated as percentage of the maximum amount of amyloid Beta 42 measured in the absence of the test compound. The sigmoidal dose response curves were analyzed using non-linear regression analysis with percentage of the control plotted against the log concentration of the compound. A 4-parameter equation was used to determine the IC50. The values reported in Table 7b are averaged IC50 values.

Aβ42 [3] = assay: Method 2: Aβ42 Alphalisa in supernatant of SKNBE2 cells carrying APP 695-wild type (Table 7c); conditions: Method 2, Alphalisa, overnight incubation
Method: as §1, with “Invitrogen” for “Gibco”, “10371-029)” for “31330-38)”, “acids, 1-glutamine 2 mM, Hepes 15 mM, penicillin 50 U/ml (units/ml) en streptomycin 50 μg/ml.” for “acids.”
(§3) The screening was performed using a modification of the assay as described in Citron et al (1997) Nature Medicine 3: 67. Briefly, cells were plated in a 384-well plate at 10^4 cells/well in Ultraculture (Lonza, BE12-725F) supplemented with 1% glutamine (Invitrogen, 25030-024), 1% non-essential amino acid (NEAA), penicillin 50 U/ml en streptomycin 50 μg/ml in the presence of test compound at different test concentrations. The cell/compound mixture was incubated overnight at 37° C., 5% CO2. The next day the media were assayed by two sandwich immuno-assays, for Aβ42 and Aβtotal.
(§4) Aβtotal and Aβ42 concentrations were quantified in the cell supernatant using the Aphalisa technology (Perkin Elmer). Alphalisa is a sandwich assay using biotinylated antibody attached to streptavidin coated donorbeads and antibody conjugated to acceptor beads. In the presence of antigen, the beads come into close proximity. The excitation of the donor beads provokes the release of singlet oxygen molecules that trigger a cascade of energy transfer in the acceptor beads, resulting in light emission. To quantify the amount of Aβ42 in the cell supernatant, monoclonal antibody specific to the C-terminus of Aβ42 (JRF/cAβ42/26) was coupled to the receptor beads and biotinylated antibody specific to the N-terminus of Aβ (JRF/AβN/25) was used to react with the donor beads. To quantify the amount of Aβtotal in the cell supernatant, monoclonal antibody specific to the N-terminus of Aβ (JRF/AβN/25) was coupled to the receptor beads and biotinylated antibody specific to the mid region of Aβ (biotinylated 4G8) was used to react with the donor beads.
as §2, with “7c,” for “7b,”, “IC50.” for “IC50. The values reported in Table 7b are averaged IC50 values.”

Aβtotal [4] = assay: Method 2: Aβtotal Alphalisa in supernatant of SKNBE2 cells carrying APP 695-wild type (Table 7c); conditions: Method 2, Alphalisa, overnight incubation
Method: as §1, with “Invitrogen” for “Gibco”, “10371-029)” for “31330-38)”, “acids, 1-glutamine 2 mM, Hepes 15 mM, penicillin 50 U/ml (units/ml) en streptomycin 50 μg/ml.” for “acids.”
as §3, §4
as §2, with “7c,” for “7b,”, “IC50.” for “IC50. The values reported in Table 7b are averaged IC50 values.”

[5] = Table 7b, averaged IC50, non-linear regression of percentage of control vs log concentration, 4-parameter equation
[6] = Table 7a, SKNBE2 cells, compounds 18 h, XLfit 4-parameter fit of percent inhibition, top/bottom fixed to 100/0, hill slope 1

IC50 (Aβ42 [1]; [5]) | IC50 (Aβtotal [2]; [5]) | IC50 (Aβ42 [3]) | IC50 (Aβtotal [4]) | IC50 (Aβ42 [1]; [6]) | IC50 (Aβtotal [2]; [6]) | Compound
251 nM | > 10000 nM | 288 nM | 9.12 µM |  |  | Cc1ncc(-c2ccc(Nc3cccc4c3nc(C(C)c3ccc(Cl)cc3)n4C)cn2)o1 (racemic) [Compound 87]
871 nM | > 30000 nM | 191 nM | > 10 µM |  |  | Cc1ncc(-c2ccc(Nc3nccc4c3nc(-c3ccc(F)cc3)n4C(C)C)cc2)o1 [Compound 26]
89 nM |  | 214 nM | > 10 µM | 90 nM | > 3000 nM | Cc1ncoc1-c1ccc(Nc2cccc3c2nc(-c2ccc(F)cc2)n3C)cn1 [Compound 35]
20 nM | > 3000 nM | 40 nM | > 10 µM | 21 nM | > 3000 nM | Cc1ncc(-c2ccc(Nc3cccn4c(C)c(-c5ccccc5Cl)nc34)cc2)o1 [Compound 49]
20 nM | > 3000 nM | 72 nM | > 10 µM | 38 nM | > 3000 nM | Cc1ncc(-c2ccc(Nc3cccn4cc(-c5cc(C(F)(F)F)ccc5C)nc34)cc2)o1 [Compound 50]
83 nM | > 3000 nM | 117 nM | > 10 µM |  |  | Cc1ncoc1-c1ccc(Nc2cccc3c2nc(-c2ccc(F)cc2)n3C(C)C)cc1F [Compound 65]
28 nM | > 3000 nM | 76 nM | > 10 µM |  |  | Cc1nc(C)c(-c2ccc(Nc3cc(F)cc4c3nc(-c3ccccc3Cl)n4C)cn2)o1 [Compound 79]
37 nM | > 3000 nM | 49 nM | > 10 µM |  |  | Cc1nc(C)c(-c2ccc(Nc3cccc4c3nc(-c3ccc(F)cc3)n4C(C)C)cn2)o1 [Compound 82]
66 nM | > 3000 nM | 363 nM | > 10 µM |  |  | Cc1ncc(-c2ccc(Nc3nccc4c3nc(-c3ccccc3Cl)n4C)cn2)o1 [Compound 85]
19 nM | > 3000 nM | 52 nM | > 10 µM |  |  | Cc1ncc(-c2ccc(Nc3cc(C#N)cc4c3nc(-c3ccc(F)cc3)n4C)cn2)o1 [Compound 86]
66 nM | > 10000 nM | 58 nM | 8.91 µM |  |  | Cc1ncc(-c2ccc(Nc3cccc4c3nc(C3(c5ccc(Cl)cc5)CC3)n4C)cn2)o1 [Compound 88]
18 nM | > 3000 nM | 25 nM | > 10 µM |  |  | Cc1ncc(-c2ccc(Nc3cc(F)cc4c3nc(-c3ccccc3Cl)n4C)cn2)o1 [Compound 107]
339 nM | > 10000 nM | 204 nM | > 10 µM |  |  | Cc1cc2c(nc(-c3cccc(Cl)c3)n2C)c(Nc2ccc(-c3ocnc3C)nc2)n1 [Compound 111]
245 nM | > 10000 nM | 158 nM | > 10 µM |  |  | COc1cc(Nc2cc(F)cn3cc(C4CCOCC4)nc23)ccc1-c1ocnc1C [Compound 163]
1410 nM | 9330 nM | 1320 nM | 6.76 µM |  |  | Cc1ncoc1-c1ccc(Nc2cccn3cc(CC4CCOCC4)nc23)cn1 [Compound 164]
21 nM | > 3000 nM | 18 nM | > 10 µM |  |  | Cc1ncc(-c2ccc(Nc3cccn4c(C)c(-c5ccccc5C(F)(F)F)nc34)cn2)o1 [Compound 167]
20 nM | > 3000 nM | 38 nM | > 10 µM |  |  | Cc1ncc(-c2ccc(Nc3cc(F)cn4cc(-c5ccc(F)cc5C)nc34)cn2)o1 [Compound 171]
2090 nM | > 3000 nM | 661 nM | > 10 µM |  |  | Cc1cn2cccc(Nc3ccc(-c4cnc(C)o4)nc3)c2n1 [Compound 172]
9 nM | > 3000 nM | 7 nM | > 10 µM |  |  | Cc1ncc(-c2ccc(Nc3cccn4c(C)c(-c5ccccc5Cl)nc34)cn2)o1 [Compound 173]
10 nM | > 3000 nM | 22 nM | > 10 µM |  |  | COCCc1c(-c2ccc(F)cc2)nc2c(Nc3ccc(-c4cnc(C)o4)c(OC)c3)cccn12 [Compound 174]
5 nM | > 3000 nM | 10 nM | > 10 µM |  |  | COc1cc(Nc2cc(C(C)C)nc3c2nc(-c2ccc(F)cc2)n3C)ccc1-c1cnc(C)o1 [Compound 190]
135 nM | > 3000 nM | 245 nM | 8.51 µM |  |  | COc1cc(Nc2cc(C#N)cn3cc(CC(C)C)nc23)ccc1-c1ocnc1C [Compound 202]
